Data reported in US20040023211A1, “System and method for optimizing drug theraphy for the treatment of diseases” (priority 2000, published 2004).
Like-named read-outs stand apart in the source and are kept apart here.

Key:
[1] = Amprenavir trough plasma concentration (Cmin, 12 hours after dosing) by LC-MS/MS in treatment-experienced patients; assay type: in vivo, adults infected with HIV-1; settings: amprenavir 1200 mg bid with abacavir, efavirenz and ritonavir or nelfinavir, 17 patients
Description: Patients were enrolled into three parallel treatment groups that included abacavir 300 mg bid, amprenavir 1200 mg bid, and efavirenz 600 mg daily with either low dose ritonavir at 200 mg BID, high dose ritonavir at 500 mg bid, or nelfinavir 1250 mg bid.
Genotyping (VircoGEN II™, VIRCO) and VIRTUAL PHENOTYPE™ were performed on baseline samples. Viral load data were collected at baseline (mean of two pre-therapy samples) and at week 24. Serial pharmacokinetic samples were collected over 12 hours after week 3 for ritonavir-boosted regimens and after week 2 for nelfinavir-boosted regimens.
Amprenavir concentrations in plasma were determined by a validated LC-MS/MS method.
For amprenavir, nelfinavir, and ritonavir, the concentration 12 hours after dosing was used as the Cmin. For each drug, relationships between viral load change at week 24 and the Cmin, fold-change in resistance, and NIQ were fit to a sigmoidal maximum effect model.

HIV-1 = assay type: in vivo, adults infected with HIV-1; settings: change in viral load at week 24, sigmoidal Emax model, p<0.05
Description: The normalized inhibitory quotient (NIQ) was determined as: [formula]
Where the IQ in an individual patient (IQpatient) was calculated as ratio of the patient's trough concentration (Cmin) to the susceptibility of the patient's virus to the drug, expressed as fold change compared to wild type virus (Virtual Phenotype). The IQpt was then related to the reference inhibitory quotient (IQref), in which the mean population trough concentration of the drug from the product label was divided by the cut-off value of the fold change for susceptible viruses.
For amprenavir, nelfinavir, and ritonavir, the concentration 12 hours after dosing was used as the Cmin. […]

HIV = settings: cited from earlier work; for % of patients with viral load below 400 copies/mL at week 24: lopinavir plus efavirenz and 2 NRTIs, 56 patients

Row | Compound | Cmin, range [1] | correlation of NIQ with outcome at 24 weeks (HIV-1) | % of patients with viral load below 400 copies/mL at week 24 (HIV; lopinavir IQ 4-15) [%] | % of patients with viral load below 400 copies/mL at week 24 (HIV; lopinavir IQ <4) [%] | % of patients with viral load below 400 copies/mL at week 24 (HIV; lopinavir IQ >15) [%] | correlation of trough concentration alone with virologic outcome (HIV; lopinavir trough concentration alone, week 24)
1 | CC(C)CN(C[C@@H](O)[C@H](Cc1ccccc1)NC(=O)O[C@H]1CCOC1)S(=O)(=O)c1ccc(N)cc1 [Amprenavir, amprenavir] | (264-3453) ng/ml | correlated with outcome at 24 weeks |  |  |  | 
2 | Cc1cccc(C)c1OCC(=O)N[C@@H](Cc1ccccc1)[C@@H](O)C[C@H](Cc1ccccc1)NC(=O)[C@H](C(C)C)N1CCCNC1=O [lopinavir] |  |  | 80 | 70 | 100 | no correlation with virologic outcome was found
